Test results from patent publication US9045490B2, “Use of parthenolide derivatives as antileukemic and cytotoxic agents” (University of Kentucky, priority 2003, dated 2015).
Where two headings read alike, the source gives them in different places.

Experiments:
[1] = test system: normal hematopoietic stem cells; assay: Human-mouse xenograft: NOD/SCID engraftment of normal donor cells treated in vitro; type: in vivo; details: 7.5 micromolar in vitro for 12-18 hours, bone marrow analysed after 6-8 weeks (CD45)
Description: (§1) To assess the effect of parthenolide on primary human stem cell populations, experiments were conducted using transplantation into immune deficient NOD/SCID mice. […] For each experiment, cryopreserved mononuclear cell specimens from normal or AML donors were thawed, and treated in vitro with 7.5 micromolar parthenolide for 12-18 hours. Following culture, 5-10 million cells/animal were injected intravenously into sublethally irradiated (300 Rad) NOD/SCID mice. After 6-8 weeks, animals were sacrificed and bone marrow was analyzed for the presence of human cells using flow cytometry as previously described (Guzman et al., Proc Natl Acad Sci USA 2002; 99: 16220-162253). Human specific antibodies for CD45 were used to assess the level of total engraftment.

[2] = test system: NF-κB DNA binding; assay: Electrophoretic mobility gel shift assay (EMSA); type: cell-based; details: three hours
Description: Each cancer cell line in exponential growth phase was treated with solvent control or various concentrations of parthenolide derivatives dissolved in 100% ethanol for 3 hours prior to harvesting. Cells were harvested and whole cell extracts were prepared as described previously (Nakshatri et al., Mol Cell Biol, 17: 3629-3639, 1997; Sweeney et al., Clin Cancer Res, 10: 5501-5507, 2004). Extracts were incubated with a radiolabelled NFκB probe for 30 minutes at room temperature. The oligonucleotide probe binds to the NFκB DNA binding site in the promoter region of the immunoglobulin gene. Electrophoresis and autoradioragraphy were performed as described previously (Nakshatri et al., 1997) using NFκB and SP-1 probes (Promega, Madison, Wis.). The specificity of parthenolide and derivative inhibition of NFκB DNA binding was verified by the use of the SP-1 probe as a control. Identification of the NFκB subunits binding to DNA and inhibited by DMAPT were identified by gel supershift. Constitutive NF-κB DNA binding activity was determined in the lung cancer cell lines A-549, H-23, H-522, and H-460. All four non-small lung cancer cells were treated with increasing concentrations of DMAPT for three hours, and NF-κB DNA binding was measured by electrophoretic mobility shift assay (EMSA) as described. NF-κB DNA binding activity was highest in A-549 cells, followed by H-23, H-522 and H-460 cells.
Cancer cell lines HT-1376 and UMUC-3 were treated with increasing concentrations of DMAPT for three hours. Whole cell extracts were prepared as described and DNA binding by NF-κB was analyzed by EMSA with NF-κB and OCT-1 (internal control) probes.
The hormone refractory prostate cancer cell line, CWR22Rv1 was treated with increasing concentrations of DMAPT for three hours. Whole cell extracts were prepared as described and DNA binding by NF-κB was analyzed by EMSA with NF-κB and SP-1 (internal control) probes.

[3] = test system: AML cells (AML stem cell compartment); assay: Human-mouse xenograft: NOD/SCID engraftment of AML cells treated in vitro; type: in vivo, human cells in NOD/SCID mice; details: 7.5 micromolar in vitro for 12-18 hours, bone marrow analysed after 6-8 weeks (CD45)
Description: as §1

[4] = Oral bioavailability in mice: plasma level by LC-MS; type: in vivo; details: mouse, 40 mg/kg oral, read-out: plasma level one hour after oral gavage
Description: (§2) Preliminary in vivo work was conducted to determine the bioavailability and toxicity of this agent in mice.

[5] = Preliminary toxicity study in mice; type: in vivo; details: oral 40 mg/kg daily, three weeks, mice gained weight and survived
Description: as §2

[6] = test system: breast cancer cell line mdl-231; assay: Clonogenic assay; type: cell-based; details: mdl-231, 2 μm concentration (parthenolide: similar dosage ranges)
[7] = test system: hormone refractory prostate cancer cell line CWR22Rv1; assay: MTS-PMS cellular proliferation assay; type: cell-based; details: at 5 μm, CWR22 MTS-PMS assay
Description: A 96-well U-bottomed plate (Becton Dickinson Labware, Franklin Lakes, N.J.) at a concentration of 5,000 cells per 50 microliters […] of media was incubated in 5% CO2 at 37° C. for 24 hours. Varying compound concentrations in […] of media were added to the media 24 hours later. Colorimetric readings were obtained using the MTS/PMS system and an ELISA plate reader, after 48 hours of exposure to DMAPT. The readings obtained for each concentration tested were from an average of eight wells. Each experiment was expressed as a percentage of the solvent control and completed at least three times with consistent results. The results presented are an average of three experiments. The hormone refractory prostate cancer cell line CWR22Rv1 was treated with increasing concentrations of parthenolide and DMAPT. for three hours Both parthenolide and DMAPT reduced cellular proliferation by 50% at 5 μm in the CWR22 MTS-PMS assay. Cellular proliferation was also measured in the MTS-PMS assay using four lung cancer cell lines treated with parthenolide and derivatives PIPT ((11S,11,13-dihydro,13-(piperidin-1-yl)parthenolide), 4MEPT (11S,11,13-dihydro,13-(4-methylpiperidin-1-yl)parthenolide) and MAPT (11S,11,13-dihydro,13-dimethylaminoparthenolide). Parthenolide and its derivatives inhibited cellular proliferation in a dose dependent manner between 2 and 10 μM with 70% inhibition at 10 μM in A549, 50% in H460, 40% in H-23 and 40% in H522 (FIGS. 2-5).

[8] = test system: breast cancer cell line hbl-100; assay: Clonogenic assay; type: cell-based; details: hbl-100, 2 μm concentration (parthenolide: similar dosage ranges)
[9] = test system: MDA-MB-231 breast cancer cells; assay: TRAIL induced apoptosis assay (carboxyfluorescein-FLICA, FACScan); type: cell-based; details: 2 or 5 μM pre-treatment two hours, then TRAIL 5 ng/ml or TRAIL-RII antibodies 10 ng/ml, 48 hours
Description: MDA-MB-231 breast cancer cells (2×10^5 cells in 60 mm plates) were treated first with 2 or 5 μM of DMAPT (LC-1). After two hours, TRAIL (TNF related-apoptosis-inducing-ligand, 5 ng/ml) or TRAIL-RII-activating antibodies (10 ng/ml) were added. After 48 hours of TRAIL or TRAIL-RII antibody treatment, cells were harvested and apoptosis was measured using carboxyfluorescein-FLICA assay. Briefly, both attached and floating cells were collected by trypsinization, incubated with carboxyfluorescein-labeled pan-caspase inhibitor FAM-VAD-FMK for 2 h at 37° C. Labeled cells were rinsed twice in PBS and resuspended in 300 μl of PBS containing 0.3 μg of propidium iodide. Apoptotic cells were identified by FACScan analysis. […] FAM-VAD-FMK stains apoptotic cells (upper left). Apoptotic cells that have lost plasma membrane integrity are stained by both FAM-VAD-FMK and propidium iodide (upper right). Necrotic cells are stained only by propidium iodide (lower right). MDA-MB-231 cells are relatively resistant to TRAIL.

## C/C1=C\CC[C@@]2(C)O[C@@H]2[C@H]2OC(=O)[C@H](CN(C)C)[C@@H]2CC1 [DMAPT, 11S,11,13-Dihydro,13-dimethylaminoparthenolide]
[1]
  level of engraftment of treated normal cells in NOD/SCID mice: no significant effects
[2]; CWR22Rv1, 10 μM
  NF-κB DNA binding: substantial decreases
[2]; HT-1376 and UMUC-3 cell lines, increasing concentrations
  NF-κB DNA binding: decreased NF-κB DNA binding in a dose-dependent manner
[2]; lung cancer cell lines A-549, H-23, H-522, H-460, between 2 and 10 micromolar
  NF-κB DNA binding activity: substantially decreased
[3]
  level of engraftment of treated AML cells in NOD/SCID mice: strong reduction
[4]; LC-MS, average of 5 mice
  concentration at 1 h: ~2500 ng/mL
[4]; conversion of the ng/mL value
  concentration at 1 h: 8 µM
[5]
  toxicity on daily oral treatment: no overt toxicities
[6]
  inhibition of proliferation: almost complete inhibition
[7]
  reduction of cellular proliferation: 50%
[8]
  inhibition of proliferation: almost complete inhibition
[9]
  sensitisation to TRAIL or TRAIL-RII activating antibody-induced apoptosis: became sensitive
